Test results: PubChem BioAssay AID504578 (NMMLSC, 2011)

Tested on: U937 / B78H1-VCAM-1 aggregate disruption, flow cytometry
Assay: U937 and B78H1-VCAM-1 aggregate breakup by VLA-4 blockers – cell-based, flow cytometry, set 1, orthogonal assay (AID 504578)
Conditions: at 20 µM; hits give high values

| Structure (SMILES) | disaggregation rating |
| --- | --- |
| c1ccc(-c2sc3ccccc3c2-c2ccc(OCCN3CCCC3)cc2)cc1 | 1 |
| COc1ccc(-c2sc3ccccc3c2-c2ccc(OCCN(C)C)cc2)cc1 | 2 |
| c1ccc2c(-c3ccc(OCCN4CCCC4)cc3)c(-c3ccsc3)sc2c1 | 2 |
| COc1cccc(-c2sc3ccccc3c2-c2ccc(OCCN3CCCC3)cc2)c1 | 1 |
| c1ccc2c(-c3ccc(OCCN4CCCCC4)cc3)c(-c3ccsc3)sc2c1 | 1 |
| COc1cccc(-c2sc3ccccc3c2-c2ccc(OCCN(C)C)cc2)c1 | 1 |
| CN(C)CCOc1ccc(-c2c(-c3ccccc3)sc3ccccc23)cc1 | 2 |
